How the values were obtained:
Details in all cases: Hit No
[1] = target: T1, Endonuclease 8-like 2 (Homo sapiens) (UniProt Q969S2);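 also: fluorescence at 594 nm reports NEIL2 cutting and release of a quenched double-stranded DNA oligo substrate, reduced signal read as inhibition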
T1 sequence (whole entry): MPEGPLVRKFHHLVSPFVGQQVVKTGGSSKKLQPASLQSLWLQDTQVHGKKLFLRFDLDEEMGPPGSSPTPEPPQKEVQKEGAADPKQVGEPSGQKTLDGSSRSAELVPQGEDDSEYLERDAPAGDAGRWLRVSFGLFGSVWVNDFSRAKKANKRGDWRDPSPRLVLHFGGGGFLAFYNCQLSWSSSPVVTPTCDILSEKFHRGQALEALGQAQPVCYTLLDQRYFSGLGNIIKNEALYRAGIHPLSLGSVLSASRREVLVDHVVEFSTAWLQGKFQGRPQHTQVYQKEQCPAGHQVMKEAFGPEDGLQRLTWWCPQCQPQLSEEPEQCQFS
Description: Inhibition of NEIL2 by quantifying inhibition of NEIL2-mediated cleavage and dissociation of quenched duplex DNA oligonucleotides, measured as fluorescence at 594 nm.

[2] = target: G/T mismatch-specific thymine DNA glycosylase (Homo sapiens) (UniProt Q13569);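 also: human TDG cleavage of quenched duplex DNA oligonucleotides coupled to APE1, strand release read as fluorescence at 594 nm, inhibition of TDG activity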
Chain of G/T mismatch-specific thymine DNA glycosylase (Homo sapiens) (Q13569 whole entry, the tested form may be a part): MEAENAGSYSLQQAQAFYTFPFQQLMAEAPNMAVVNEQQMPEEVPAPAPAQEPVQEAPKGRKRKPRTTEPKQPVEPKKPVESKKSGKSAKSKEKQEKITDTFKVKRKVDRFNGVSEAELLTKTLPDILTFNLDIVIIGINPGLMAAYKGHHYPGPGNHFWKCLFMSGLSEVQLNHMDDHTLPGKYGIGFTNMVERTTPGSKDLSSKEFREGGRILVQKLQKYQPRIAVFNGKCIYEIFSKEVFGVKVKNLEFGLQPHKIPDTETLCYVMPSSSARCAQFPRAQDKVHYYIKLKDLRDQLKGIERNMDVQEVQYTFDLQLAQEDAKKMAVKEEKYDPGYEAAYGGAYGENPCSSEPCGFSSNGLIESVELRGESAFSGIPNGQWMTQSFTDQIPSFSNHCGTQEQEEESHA
Description: Inhibition of TDG by quantifying inhibition of TDG-mediated cleavage and dissociation of quenched duplex DNA oligonucleotides, measured as fluorescence at 594 nm. To generate a functional strand incision and increase turn-over this assay is coupled to APE1.

[3] = target: Methyl-CpG-binding domain protein 4 (Homo sapiens) (UniProt O95243);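 also: MBD4 activity read as fluorescence at 594 nm from cleavage and release of a quenched duplex DNA oligonucleotide, with APE1 coupled to incise the strand and raise turnover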
Chain of Methyl-CpG-binding domain protein 4 (Homo sapiens) (O95243 whole entry, the tested form may be a part): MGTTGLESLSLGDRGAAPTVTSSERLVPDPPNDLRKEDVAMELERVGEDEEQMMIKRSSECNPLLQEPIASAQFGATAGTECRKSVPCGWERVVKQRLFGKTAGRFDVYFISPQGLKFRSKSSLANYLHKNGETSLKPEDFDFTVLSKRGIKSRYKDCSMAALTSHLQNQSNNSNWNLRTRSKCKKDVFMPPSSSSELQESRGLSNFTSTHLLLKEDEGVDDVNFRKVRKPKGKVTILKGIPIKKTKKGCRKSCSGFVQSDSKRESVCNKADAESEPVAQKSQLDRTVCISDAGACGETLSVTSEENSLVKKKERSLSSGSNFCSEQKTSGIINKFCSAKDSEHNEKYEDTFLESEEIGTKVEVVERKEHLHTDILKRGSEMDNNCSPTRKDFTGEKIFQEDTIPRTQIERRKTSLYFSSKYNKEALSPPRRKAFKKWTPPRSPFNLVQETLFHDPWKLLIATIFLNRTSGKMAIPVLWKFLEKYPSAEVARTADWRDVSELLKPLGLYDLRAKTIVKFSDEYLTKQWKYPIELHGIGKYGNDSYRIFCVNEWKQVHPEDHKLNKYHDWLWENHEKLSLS
Description: Inhibition of MBD4 by quantifying inhibition of MBD4-mediated cleavage and dissociation of quenched duplex DNA oligonucleotides, measured as fluorescence at 594 nm. To generate a functional strand incision and increase turn-over this assay is coupled to APE1.

[4] = target: T2, Endonuclease III-like protein 1 (Homo sapiens) (UniProt P78549);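 also: enzyme assay tracking NTHL1 cutting and release of a quenched double-stranded DNA oligo substrate, read as fluorescence at 594 nm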
T2 sequence (whole entry): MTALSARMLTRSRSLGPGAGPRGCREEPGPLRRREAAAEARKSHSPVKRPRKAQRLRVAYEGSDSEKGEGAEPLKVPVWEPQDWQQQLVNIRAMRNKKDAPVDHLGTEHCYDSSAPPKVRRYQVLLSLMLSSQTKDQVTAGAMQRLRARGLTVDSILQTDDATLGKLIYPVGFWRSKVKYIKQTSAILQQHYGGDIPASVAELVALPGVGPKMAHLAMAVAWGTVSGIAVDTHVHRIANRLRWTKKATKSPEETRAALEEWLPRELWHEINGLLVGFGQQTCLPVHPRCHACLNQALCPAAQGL
Description: Inhibition of NTHL1 by quantifying inhibition of NTHL1-mediated cleavage and dissociation of quenched duplex DNA oligonucleotides, measured as fluorescence at 594 nm.

[5] = target: T3, Single-strand selective monofunctional uracil DNA glycosylase (Homo sapiens) (UniProt Q53HV7);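 also: enzymatic SMUG1 assay coupled with APE1, reading fluorescence at 594 nm released when a quenched double-stranded DNA oligonucleotide substrate is cleaved and separated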
T3 sequence (whole entry): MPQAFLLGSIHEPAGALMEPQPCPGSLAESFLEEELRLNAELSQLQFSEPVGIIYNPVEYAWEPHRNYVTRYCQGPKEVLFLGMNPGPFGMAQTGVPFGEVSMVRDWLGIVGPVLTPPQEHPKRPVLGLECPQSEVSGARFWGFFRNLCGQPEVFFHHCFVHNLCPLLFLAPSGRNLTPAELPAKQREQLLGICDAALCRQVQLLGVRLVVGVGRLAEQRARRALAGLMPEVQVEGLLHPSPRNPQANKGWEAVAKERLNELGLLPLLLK
Description: Inhibition of SMUG1 by quantifying inhibition of SMUG1-mediated cleavage and dissociation of quenched duplex DNA oligonucleotides, measured as fluorescence at 594 nm. To generate a functional strand incision and increase turn-over this assay is coupled to APE1.

[6] = target: N-glycosylase/DNA lyase (Homo sapiens) (UniProt O15527);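 also: OGG1 cleavage of a quenched duplex DNA oligonucleotide, coupled to APE1 for strand incision, read as fluorescence at 594 nm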
Chain of N-glycosylase/DNA lyase (Homo sapiens) (O15527 whole entry): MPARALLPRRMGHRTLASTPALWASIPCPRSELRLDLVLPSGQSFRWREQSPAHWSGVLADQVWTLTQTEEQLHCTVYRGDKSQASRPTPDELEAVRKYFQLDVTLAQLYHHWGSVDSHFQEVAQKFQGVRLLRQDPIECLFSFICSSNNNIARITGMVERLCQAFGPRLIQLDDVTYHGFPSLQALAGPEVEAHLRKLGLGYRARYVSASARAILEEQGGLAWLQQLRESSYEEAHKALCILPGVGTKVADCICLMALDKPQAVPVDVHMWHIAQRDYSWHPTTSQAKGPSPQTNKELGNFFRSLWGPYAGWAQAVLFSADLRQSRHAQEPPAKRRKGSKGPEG
Description: Inhibition of OGG1 by quantifying inhibition of OGG1-mediated cleavage and dissociation of quenched duplex DNA oligonucleotides, measured as fluorescence at 594 nm. To generate a functional strand incision and increase turn-over this assay is coupled to APE1.

[7] = target: Uracil-DNA glycosylase (Homo sapiens) (UniProt P13051);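 also: UNG excision on a quenched double-stranded DNA oligo probe, with APE1 added for strand incision and turnover, read as fluorescence at 594 nm as strands separate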
Chain of Uracil-DNA glycosylase (Homo sapiens) (P13051 whole entry): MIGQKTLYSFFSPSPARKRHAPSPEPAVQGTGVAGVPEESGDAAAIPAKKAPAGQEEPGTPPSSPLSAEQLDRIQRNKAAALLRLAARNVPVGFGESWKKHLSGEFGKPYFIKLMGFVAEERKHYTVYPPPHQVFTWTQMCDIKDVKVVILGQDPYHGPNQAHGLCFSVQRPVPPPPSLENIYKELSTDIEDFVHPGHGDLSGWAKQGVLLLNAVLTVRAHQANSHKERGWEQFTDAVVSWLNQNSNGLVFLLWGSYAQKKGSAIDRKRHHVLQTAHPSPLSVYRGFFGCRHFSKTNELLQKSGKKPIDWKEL
Description: Inhibition of UNG by quantifying inhibition of UNG-mediated cleavage and dissociation of quenched duplex DNA oligonucleotides, measured as fluorescence at 594 nm. To generate a functional strand incision and increase turn-over this assay is coupled to APE1.

[8] = target: T4, Adenine DNA glycosylase (Homo sapiens) (UniProt Q9UIF7);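 also: human MUTYH activity read as 594 nm fluorescence from cleavage and release of a quenched DNA duplex, coupled with APE1 for strand incision, lower signal meaning inhibition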
T4 sequence (whole entry): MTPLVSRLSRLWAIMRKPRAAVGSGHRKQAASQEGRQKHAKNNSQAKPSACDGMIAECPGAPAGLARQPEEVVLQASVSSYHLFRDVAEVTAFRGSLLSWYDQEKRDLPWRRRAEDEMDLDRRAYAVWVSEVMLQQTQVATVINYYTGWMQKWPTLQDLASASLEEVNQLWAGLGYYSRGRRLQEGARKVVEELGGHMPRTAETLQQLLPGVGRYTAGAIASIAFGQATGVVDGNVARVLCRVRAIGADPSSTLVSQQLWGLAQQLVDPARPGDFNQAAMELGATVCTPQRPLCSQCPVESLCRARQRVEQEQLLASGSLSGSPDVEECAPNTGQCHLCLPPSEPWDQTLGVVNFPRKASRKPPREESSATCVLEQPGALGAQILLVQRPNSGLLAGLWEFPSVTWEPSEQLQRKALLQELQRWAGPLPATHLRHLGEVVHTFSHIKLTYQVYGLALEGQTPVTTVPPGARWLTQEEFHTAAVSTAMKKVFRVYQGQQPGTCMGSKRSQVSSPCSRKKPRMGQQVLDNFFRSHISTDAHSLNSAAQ
Description: Inhibition of MUTYH by quantifying inhibition of MUTYH-mediated cleavage and dissociation of quenched duplex DNA oligonucleotides, measured as fluorescence at 594 nm. To generate a functional strand incision and increase turn-over this assay is coupled to APE1.

Row | Structure (SMILES) | inhibition ([1]; Compound Concentration 10.0 uM) [%] | inhibition ([2]; Compound Concentration 10.0 uM) [%] | inhibition ([3]; Compound Concentration 10.0 uM) [%] | inhibition ([4]; Compound Concentration 10.0 uM) [%] | inhibition ([5]; Compound Concentration 10.0 uM) [%] | inhibition ([6]; Compound Concentration 10.0 uM) [%] | inhibition ([7]; Compound Concentration 10.0 uM) [%] | inhibition ([8]; Compound Concentration 10.0 uM) [%] | inhibition ([1]; Compound Concentration 1.0 uM) [%] | inhibition ([2]; Compound Concentration 1.0 uM) [%] | inhibition ([3]; Compound Concentration 1.0 uM) [%] | inhibition ([4]; Compound Concentration 1.0 uM) [%] | inhibition ([5]; Compound Concentration 1.0 uM) [%] | inhibition ([6]; Compound Concentration 1.0 uM) [%] | inhibition ([7]; Compound Concentration 1.0 uM) [%] | inhibition ([8]; Compound Concentration 1.0 uM) [%]
1 | COc1nc2ccc([C@@](O)(c3ccc(Cl)cc3)c3cncn3C)cc2c(Cl)c1Cc1ccc(-n2cccn2)cc1 | -3.55 | 42.9 | 64.5 | -3.26 | 16.6 | 14.3 | 9.26 | 6.4 |  |  |  |  |  |  |  | 
2 | CC1=C(C#N)C(c2ccc3[nH]nc(C)c3c2)C(C#N)=C(C)N1 | 1.25 | 72.9 | 24.9 | 7.43 | 17.6 | 4.91 | 2.96 | 18.6 |  |  |  |  |  |  |  | 
3 | CC(C)C(=O)N1CCC(c2cn(C)c3ncc(NC(=O)c4cccc(C#N)c4)c(C(F)(F)F)c23)CC1 | -3.04 | 58.4 | 55.2 | 9.89 | 26.5 | 7.16 | 5.34 | 7.16 |  |  |  |  |  |  |  | 
4 | CN1C(=O)[C@@H](N2CCc3cn(Cc4ccccc4)nc3C2=O)COc2ccccc21 |  |  |  |  |  |  |  |  | -5.67 | 42.8 | 21.1 | 1.82 | 12.5 | 5.71 | 2.22 | 5.54
5 | COc1cc(Nc2nc(C)cc(-c3cnn4nc(OC)ccc34)n2)cc(C(F)(F)F)c1 | 2.66 | 47.8 | 26.4 | 8.46 | 16.3 | -9.1 | -0.61 | -7.4 |  |  |  |  |  |  |  | 
6 | COc1nc2ccc([C@@](O)(c3ccccc3)C3CCN(C(C)=O)CC3)cc2c(Cl)c1Cc1ccc(-n2cccn2)cc1 | -7.63 | 48.5 | 64.6 | -1.29 | 22.3 | 10.5 | 10.2 | 5.36 |  |  |  |  |  |  |  | 
7 | Cc1cc(OC2CCS(=O)(=O)CC2)cc(C)c1-c1cccc(COc2ccc(CCC(=O)O)c(F)c2)c1 | -9.42 | 45.8 | 58.2 | -0.63 | 12.1 | 48.4 | 3.54 | 3.94 |  |  |  |  |  |  |  | 
8 | Cn1cncc1[C@](O)(COc1ccc(C#N)cc1-c1ccc(OC(F)(F)F)cc1)c1ccc(C#N)cc1 | 0.531 | 37.9 | 62 | 10.6 | -2.99 | 7.95 | -1.26 | -9.34 |  |  |  |  |  |  |  | 
9 | Cn1cc(C(=O)O)c2ccc(N3CCC(OCc4c(-c5c(Cl)cccc5Cl)noc4C4CC4)CC3)cc21 | 0.531 | 99.9 | 64.1 | 8.57 | -2.05 | 24 | -3.65 | 2.96 |  |  |  |  |  |  |  | 
10 | CO[C@@H](C)c1c(Nc2ccc([C@H](N(C)C(=O)C3CCS(=O)(=O)CC3)C(F)(F)F)cc2)cnc2cc(Cl)nn12 | 5.63 | 48.6 | 77.6 | -3.92 | -7.05 | -4 | -1.74 | -6.71 |  |  |  |  |  |  |  | 
11 | COc1cc(F)ccc1-c1ncnc(Nc2cccc(C[S@](C)(=N)=O)c2)n1 | -10 | 49.6 | -7.86 | -0.61 | 21.4 | 9.82 | 2.17 | -2.6 |  |  |  |  |  |  |  | 
12 | CCn1c(=O)c(C)cn(Cc2nnc(-c3ccc(F)c(OC)c3F)s2)c1=O | -5.85 | 20.6 | 72.7 | -4.57 | 17.9 | 7.36 | 2.54 | 5.03 |  |  |  |  |  |  |  | 
13 | O=S(=O)(c1ccccc1)N(CC(F)(F)F)c1ccc(C(O)(C(F)(F)F)C(F)(F)F)cc1 | -6.61 | 50.9 | 64.2 | -5.89 | 0.186 | 22.5 | -2.07 | 11.1 |  |  |  |  |  |  |  | 
14 | CN1CCN(C(=O)C(C)(C)c2ccc(C(=O)Nc3cn4cc(-c5cc(C(C)(C)C)cc(C(C)(C)C)c5)ccc4n3)cc2)CC1 | -7.12 | 15.4 | -6.81 | -6.55 | 11.1 | 18.8 | 2.56 |  |  | 41 | -6.71 | -0.61 | 20 |  | 3.16 | -8.55

Next, values leading:

Row | inhibition ([1]; Compound Concentration 10.0 uM) [%] | inhibition ([2]; Compound Concentration 10.0 uM) [%] | inhibition ([3]; Compound Concentration 10.0 uM) [%] | inhibition ([4]; Compound Concentration 10.0 uM) [%] | inhibition ([5]; Compound Concentration 10.0 uM) [%] | inhibition ([6]; Compound Concentration 10.0 uM) [%] | inhibition ([7]; Compound Concentration 10.0 uM) [%] | inhibition ([8]; Compound Concentration 10.0 uM) [%] | inhibition ([1]; Compound Concentration 1.0 uM) [%] | inhibition ([2]; Compound Concentration 1.0 uM) [%] | inhibition ([3]; Compound Concentration 1.0 uM) [%] | inhibition ([4]; Compound Concentration 1.0 uM) [%] | inhibition ([5]; Compound Concentration 1.0 uM) [%] | inhibition ([6]; Compound Concentration 1.0 uM) [%] | inhibition ([7]; Compound Concentration 1.0 uM) [%] | inhibition ([8]; Compound Concentration 1.0 uM) [%] | Structure (SMILES)
15 | 5.63 | 47.2 | 61 | -6.55 | 9.09 | 2.2 | 1.63 | 22.8 |  |  |  |  |  |  |  |  | CC(=O)Nc1c(C(C)=O)c(=O)n(C)c2nc(-c3ccc(Cl)cc3Cl)c(-c3ccc(Cl)cc3)cc12
16 | 6.91 | 48.7 | 57 | 13.2 | 11.2 | -3.66 | -0.0445 | 6.4 |  |  |  |  |  |  |  |  | CC(=O)N1CCC(c2ccc(C(=O)NC3=NCCN3)cc2C(F)(F)F)CC1
17 | -7.38 | 53.6 | 62.8 | -7.86 | 17.9 | 20.2 | 5.42 | 6.62 |  |  |  |  |  |  |  |  | Cc1nc(-c2ccc(C(F)(F)F)cc2)sc1C(=O)NCc1ccc(OC(C)(C)C(=O)O)cc1
18 | 1.55 | 40.6 | 58 | -7.86 | 18.2 | 3.38 | 0.459 | -9.5 |  |  |  |  |  |  |  |  | COC(=O)c1sccc1S(=O)(=O)Nc1ccc(Nc2ccccc2)cc1OC
19 | -4.57 | 97.5 | 55.4 | 7.92 | 16.2 | 16.5 | -1.49 | -8.96 |  |  |  |  |  |  |  |  | CCOC(=O)N1CCC(CN(Cc2ccc(Cl)cc2)Cc2ccc([N+](=O)[O-])s2)C1 (centres undefined)
20 | 2.32 | 99 | 58.8 | 1.34 | 23.9 | 5.59 | -3.11 | -4.2 |  |  |  |  |  |  |  |  | O=C(O)CCCc1cc2cc(Cl)ccc2n1S(=O)(=O)c1ccc2ncsc2c1
21 | 17.9 | 58.6 | 59.6 | -8.52 | 10.3 | 35.9 | 4.37 | 7.33 |  |  |  |  |  |  |  |  | Cc1c(NC(=O)COc2ccc(Cl)cc2C(=O)c2cc(F)cc(C(F)(F)F)c2)ccc(C(=O)O)c1F
22 | -2.46 | 46.5 | 24.9 | -8.98 | 6.38 | 6.26 | -0.384 | -3.46 |  |  |  |  |  |  |  |  | COc1ccc(COc2ccc(Cc3cnc(N)nc3N)cc2OC)cc1
23 | -8.14 | 97.5 | 51.2 | 0.685 | 15.9 | -0.262 | -6.06 | -1.09 |  |  |  |  |  |  |  |  | CCS(=O)(=O)c1cc2cc(C[C@](O)(CC(C)(C)c3ccc(F)cc3C(N)=O)C(F)(F)F)[nH]c2cn1

From ChEMBL document CHEMBL5665443, “Enzyme Inhibitor Single Concentration assay results for EUbOPEN Chemogenomics Library” (2024)
